What all share (assay): inhibition of tumour cell growth, NCI panel, 48 h
In experiment [1] the test system is UO-31 renal.
Experiment [2] deals with M14 melanoma.
Experiment [3] relates to UACC-257 melanoma.
Experiment [4] deals with SK-MEL-28 melanoma.
Experiment [5] relates to A549 NSCLC.
Experiment [6] relates to K-562 leukemia.
For experiment [7], the system named is OVCAR-4 ovarian.
Experiment [8] has as its system SK-OV-3 ovarian.
In experiment [9] the test system is CCRF-CEM leukemia.
For experiment [10], the system named is HCT-116 colon.
For experiment [11], the system named is SW-620 colon.
Experiment [12] relates to SF-539 CNS.
Experiment [13] has as its system U251 CNS.
The subject of experiment [14] is SF-268 CNS.
Experiment [15] relates to SN12C renal.
Experiment [16] relates to NCI-H226 lung.
The test system of experiment [17] is HCC-2998 colon.

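Five concentrations, 48 hours, 96-well plates. At the TGI there is no net growth.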 Where a SMILES comes first, the peptide text is derived from it. [ ]: non-standard residue; d: D form. The star is where a group is joined. ξ: configuration not given here. NMeF = CN[CH](Cc1ccccc1)C(=O)O; ξNMe2Val = CC(C)C(C(=O)*)N(C)C; NMeV = CN[CH](C(=O)O)C(C)C; ξNMeV = CNC(C(=O)O)C(C)C; Boc = CC(C)(C)OC(=O)*; OBn = c1ccc(CO*)cc1; OtBu = CC(C)(C)O*

Regarding `CCO/C(O)=c1/s/c(=C(\C#N)c2nc3ccccc3[nH]2)n(-c2ccccc2)c1=N`, the TGI in [1], in experiment [2], in experiment [3], in [4], in experiment [5] and in experiment [6] was over 100 µM each time. For the same compound, the TGI in experiment [7], in experiment [8], in experiment [9], in [10], in experiment [11] and in experiment [12] was over 100 µM throughout. Besides, the TGI in experiment [13], in [14], in experiment [15] and in experiment [16] was over 100 µM each time.
Regarding `CC(C)C(C(=O)N(C)C(Cc1ccccc1)C(=O)N(C)C(C(=O)N(C)C(C(=O)N1CCCC1C(=O)OC(C)(C)C)C(C)C)C(C)C)N(C)C` (stereo not given) (ξNMe2Val-[NMeF][NMeV][NMeV]P-OtBu; configuration not given here), the TGI in experiment [1] was over 100 µM; in experiment [2], 51.2 µM; in experiment [3], over 100 µM; in [5], over 100 µM; in [6], over 100 µM; in experiment [9], over 100 µM. Besides, the TGI in experiment [10] was over 100 µM; in experiment [17], 53.3 µM; in experiment [11], over 100 µM; in experiment [12], over 100 µM; in [14], over 100 µM; in experiment [15], over 100 µM. The compound also displayed a TGI in [16] of over 100 µM.
`CC(=O)Nc1ccc(/C=c2\sc3nnc(-c4cccnc4)n3c2=O)cc1`: the TGI was 24.7 µM in [1]; 39.2 µM in experiment [2]; 49 µM in experiment [3]; 33 µM in experiment [4]; over 100 µM in experiment [5]; 70.1 µM in [6]. Moreover, the TGI in experiment [7] was determined as 30.7 µM; in [8], 66 µM; in experiment [9] it was 53.9 µM; in [10], 28.9 µM; in [17], 35.8 µM; in experiment [11], 34.2 µM. Besides, the TGI in [12] was 33.3 µM; in [13], 33.5 µM; in experiment [14], 60 µM; in experiment [15], 31 µM; in experiment [16] it was over 100 µM.
On to `CC(C)C(C(=O)N(C)[C@H](C(=O)N1CCC[C@H]1C(=O)N(C)[C@@H](Cc1ccccc1)C(=O)OCc1ccccc1)C(C)C)N(C)C(=O)[C@@H](NC(=O)OC(C)(C)C)C(C)C` (stereo not given in full) (Boc-V[ξNMeV][NMeV]P[NMeF]-OBn), for which the TGI in experiment [1] was over 31.6 µM; in experiment [2] it was over 100 µM; in experiment [3], over 31.6 µM; in experiment [4] it was over 31.6 µM; in [5], over 31.6 µM; in experiment [6], 12.6 µM. Moreover, the TGI in experiment [7] was over 100 µM; in experiment [8], over 31.6 µM; in [9], over 31.6 µM; in experiment [10], over 31.6 µM; in experiment [11] it was over 31.6 µM; in [12], over 31.6 µM. Besides, the TGI in [13] is over 31.6 µM; in [14] it was over 31.6 µM; in [15], over 100 µM; in experiment [16], over 100 µM.
As for `CSC(C1c2ccccc2N(C)c2[nH]c(=O)n(C)c(=O)c21)S(=O)(=O)c1ccc(C)cc1` (stereo not given), the TGI in [1], in experiment [3], in experiment [4], in experiment [5], in [6] and in experiment [7] was over 100 µM each time. In addition, the TGI in [8], in [9], in experiment [10], in [17], in [11] and in [12] was over 100 µM in each case. Besides, the TGI in [13], in experiment [14], in experiment [15] and in experiment [16] was over 100 µM throughout.
Regarding `CN(C)CCC[N+]1=Nc2cccc3cccc(c23)N1`, the TGI in experiment [1] is over 100 µM; in experiment [2] it was 39 µM; in experiment [3], over 100 µM; in experiment [4] it was over 100 µM; in experiment [5] it was over 100 µM; in experiment [6], over 100 µM. The TGI in experiment [7] is over 100 µM; in experiment [8] it was over 100 µM; in [9], 80.8 µM; in [10] it was over 100 µM; in experiment [17], over 100 µM; in experiment [11], 44.9 µM. For the same compound, the TGI in experiment [12], in experiment [13], in experiment [14], in experiment [15] and in experiment [16] was over 100 µM throughout.
For the compound `COC(=O)C(CCC1(C)OCCO1)=[N+]=[N-]`, the TGI in experiment [1], in experiment [2], in [3], in experiment [4], in [5] and in experiment [6] was over 100 µM each time. For the same compound, the TGI in experiment [7], in experiment [8], in experiment [9], in experiment [10], in experiment [17] and in [11] was over 100 µM throughout. The TGI in [12], in experiment [13], in [14], in [15] and in experiment [16] was over 100 µM in each case.
In the case of `O=C1[C@@H]2C(c3ccccc3[N+](=O)[O-])=NO[C@@H]2C(=O)N1c1ccc(Cc2ccc(N3C(=O)[C@H]4C(c5ccccc5[N+](=O)[O-])=NO[C@H]4C3=O)cc2)cc1`, the TGI in experiment [1], in [2], in [3], in experiment [4], in experiment [6] and in [7] was over 100 µM throughout. Besides, the TGI in [9], in [10], in [17], in experiment [11], in experiment [12] and in experiment [13] was over 100 µM each time. In addition, the TGI in experiment [14] and in experiment [15] was over 100 µM in each case.
In the case of `COc1ccc(C2=Nc3ccccc3N=C(SC)C2)cc1`, the TGI is over 100 µM in experiment [1]; over 100 µM in experiment [2]; 65.7 µM in [3]; over 100 µM in experiment [4]; over 100 µM in experiment [5]; 53.2 µM in experiment [6]. For the same compound, the TGI in [7] is over 100 µM; in [8], over 100 µM; in experiment [9], 42 µM; in [10], over 100 µM; in experiment [17], 74.4 µM; in [11], 41 µM. For the same compound, the TGI in experiment [12], in [13], in [14], in [15] and in [16] was over 100 µM throughout.
As to `CC12CCc3ccccc3C1=NNC(=O)C2` (stereo not given), the TGI in experiment [1], in [2], in experiment [3], in experiment [4], in [5] and in [6] was over 100 µM each time. In addition, the TGI in experiment [7], in experiment [8], in [9], in experiment [10], in [17] and in [11] was over 100 µM each time. The TGI in experiment [12], in experiment [13], in [14], in [15] and in experiment [16] was over 100 µM each time.
With `COc1ccc(NC(=O)C(=O)Cc2ccc([N+](=O)[O-])c([N+](=O)[O-])c2CC(=O)C(=O)Nc2ccc(OC)cc2OC)c(OC)c1`, the TGI in experiment [1], in experiment [2], in [3], in experiment [4], in experiment [5] and in [6] was over 100 µM each time. The TGI in [7], in [8], in experiment [9], in experiment [10], in experiment [17] and in [11] was over 100 µM throughout. Further, the TGI in [13], in experiment [14], in experiment [15] and in experiment [16] was over 100 µM throughout.
As for `O=C1Nc2ccc(Cl)c(I)c2C1=O`, the TGI in experiment [1] was 38.8 µM; in [2], 31.1 µM; in [3], 33 µM; in experiment [4], 31.7 µM; in [5], over 100 µM; in [6], 65.5 µM. The TGI in [7] amounted to 32 µM; in experiment [8], 34.6 µM; in experiment [9], 57.4 µM; in [10], 28.8 µM; in experiment [17] it was 27.7 µM; in [11], 36.9 µM. Further, the TGI in experiment [13] came out at 31.2 µM; in experiment [14], 32.6 µM; in [15] it was 30.9 µM; in experiment [16], 20 µM.
`CCCCCCCCCCCCCS(=O)(=O)NCC(N)=O`: the TGI in experiment [1], in experiment [2], in experiment [3], in [4], in experiment [5] and in experiment [7] was over 100 µM each time. Also, the TGI in [8], in [9], in experiment [10], in [17], in experiment [11] and in experiment [12] was over 100 µM each time. Besides, the TGI in experiment [13], in experiment [14], in [15] and in experiment [16] was over 100 µM in each case.
Consider `CCCCOC(=O)NC(=O)c1cn(CCCOC(=O)CCCCCCCCC(=O)OCCCn2cc(C(=O)NC(=O)OCCCC)c(=O)n(C)c2=O)c(=O)n(C)c1=O`, for which the TGI in experiment [1], in [2], in experiment [3], in experiment [4], in experiment [5] and in experiment [6] was over 100 µM each time. Besides, the TGI in experiment [7], in [9], in [10], in experiment [17], in [11] and in experiment [12] was over 100 µM in each case. Also, the TGI in experiment [13], in experiment [14], in experiment [15] and in experiment [16] was over 100 µM each time.
Take `Cc1ccc(Nc2nc(-c3ccc(-c4ccc([N+](=O)[O-])cc4)o3)cs2)cc1`: the TGI in experiment [1] was over 100 µM; in experiment [2], over 100 µM; in [3], 90 µM; in experiment [4], over 100 µM; in [5], over 100 µM; in [6], over 100 µM. The TGI is over 100 µM in experiment [7]; over 100 µM in [8]; over 100 µM in [10]; 97 µM in [17]; over 100 µM in experiment [11]; over 100 µM in [12]. The TGI in experiment [13], in experiment [14], in [15] and in [16] was over 100 µM each time.
As to `Cc1nn2c(c1C#N)NNc1c-2sc(=N)nnc1=O`, the TGI in experiment [1], in experiment [2], in [4], in experiment [5], in experiment [6] and in [7] was over 100 µM each time. The TGI in experiment [8], in [9], in experiment [10], in experiment [11], in [12] and in experiment [13] was over 100 µM throughout. For the same compound, the TGI in [14] and in experiment [15] was over 100 µM in each case.
Regarding `CC#COS(=O)(=O)c1ccc(C)cc1`, the TGI in [1], in experiment [2], in [3], in [5], in [6] and in experiment [7] was over 100 µM throughout. Further, the TGI in experiment [8], in experiment [9], in [10], in experiment [17], in experiment [11] and in experiment [12] was over 100 µM throughout. The TGI in [13], in experiment [14], in experiment [15] and in [16] was over 100 µM throughout.

The values above are taken from PubChem BioAssay (NCI).
